The structures appear in SMILES notation.

For one compound, MIC and inhibition results are on record in ChEMBL document CHEMBL1155625, “Nostocyclyne A, a novel antimicrobial cyclophane from the cyanobacterium Nostoc sp” (2000).

What all share (assay type): functional
The subject of experiment [1] is Staphylococcus aureus. The experiment in a line: Antimicrobial activity against Staphylococcus aureus measured per disk.
Experiment [2] concerns Escherichia coli. Kind of experiment: Antimicrobial activity against Escherichia coli measured per disk.
Experiment [3] deals with Chlorophyta. The experiment in a line: Inhibition of photosynthesis in green alga at 100 ug/mL.

As to `CCCC1CCCCCCCCCCCC#Cc2cc(O)c1c(O)c2` (stereo not drawn) [NOSTOCYCLYNE A], the MIC amounted to 12.5 µg in experiment [1] and 10 µg in experiment [2]. Moreover, the inhibition at 100 µg/mL in experiment [3] came out at 5%.

In general, inhibition refers to the percentage by which the read-out fell short of the control.
